In ChEMBL document CHEMBL1129882, “Beta-amino acid derivatives as orally active non-peptide fibrinogen receptor antagonists” (Bioorg Med Chem Lett, 1997):

What was measured:
[1] = test system: Cavia porcellus; assay: Ex vivo platelet aggregation of compound was measured in guinea pig up to 5 hr after intraduodenal dose of 1 mg/kg; assay type: functional
[2] = test system: Cavia porcellus; assay: Ex vivo platelet aggregation of compound was measured in guinea pig up to 5 hr after intraduodenal dose of 3 mg/kg; assay type: functional
[3] = species: Homo sapiens; assay: Tested in vitro for the inhibition of ADP-induced aggregation of human blood platelets; assay type: functional
[4] = target: T1, Integrin alpha-IIb/beta-3 (Homo sapiens, UniProt P05106+P08514); assay: Inhibition of fibrinogen binding to immobilized human glycoprotein alpha IIb beta-3 integrin; assay type: protein-complex assay
T1 sequence (P05106 27-788 limits assumed): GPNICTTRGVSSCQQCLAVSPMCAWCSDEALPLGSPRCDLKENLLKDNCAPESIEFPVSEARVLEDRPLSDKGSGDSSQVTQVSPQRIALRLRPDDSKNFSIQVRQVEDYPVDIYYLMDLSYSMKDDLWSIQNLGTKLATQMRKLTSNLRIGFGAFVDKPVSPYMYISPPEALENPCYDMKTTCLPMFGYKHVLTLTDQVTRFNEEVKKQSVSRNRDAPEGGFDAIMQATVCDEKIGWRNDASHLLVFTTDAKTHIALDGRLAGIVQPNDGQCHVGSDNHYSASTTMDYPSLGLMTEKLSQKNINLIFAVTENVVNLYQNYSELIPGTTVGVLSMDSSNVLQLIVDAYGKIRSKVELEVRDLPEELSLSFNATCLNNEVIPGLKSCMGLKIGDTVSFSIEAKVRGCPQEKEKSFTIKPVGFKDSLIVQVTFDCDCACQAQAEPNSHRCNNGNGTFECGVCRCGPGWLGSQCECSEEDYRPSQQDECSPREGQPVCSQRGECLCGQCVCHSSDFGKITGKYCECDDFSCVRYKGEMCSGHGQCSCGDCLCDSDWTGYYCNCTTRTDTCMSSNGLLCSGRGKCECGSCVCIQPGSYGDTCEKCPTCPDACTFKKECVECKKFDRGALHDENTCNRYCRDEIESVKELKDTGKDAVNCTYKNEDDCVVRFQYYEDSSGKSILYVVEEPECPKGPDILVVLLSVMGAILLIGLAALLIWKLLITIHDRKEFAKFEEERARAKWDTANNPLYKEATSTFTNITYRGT
T1 sequence (P08514 32-887 limits assumed): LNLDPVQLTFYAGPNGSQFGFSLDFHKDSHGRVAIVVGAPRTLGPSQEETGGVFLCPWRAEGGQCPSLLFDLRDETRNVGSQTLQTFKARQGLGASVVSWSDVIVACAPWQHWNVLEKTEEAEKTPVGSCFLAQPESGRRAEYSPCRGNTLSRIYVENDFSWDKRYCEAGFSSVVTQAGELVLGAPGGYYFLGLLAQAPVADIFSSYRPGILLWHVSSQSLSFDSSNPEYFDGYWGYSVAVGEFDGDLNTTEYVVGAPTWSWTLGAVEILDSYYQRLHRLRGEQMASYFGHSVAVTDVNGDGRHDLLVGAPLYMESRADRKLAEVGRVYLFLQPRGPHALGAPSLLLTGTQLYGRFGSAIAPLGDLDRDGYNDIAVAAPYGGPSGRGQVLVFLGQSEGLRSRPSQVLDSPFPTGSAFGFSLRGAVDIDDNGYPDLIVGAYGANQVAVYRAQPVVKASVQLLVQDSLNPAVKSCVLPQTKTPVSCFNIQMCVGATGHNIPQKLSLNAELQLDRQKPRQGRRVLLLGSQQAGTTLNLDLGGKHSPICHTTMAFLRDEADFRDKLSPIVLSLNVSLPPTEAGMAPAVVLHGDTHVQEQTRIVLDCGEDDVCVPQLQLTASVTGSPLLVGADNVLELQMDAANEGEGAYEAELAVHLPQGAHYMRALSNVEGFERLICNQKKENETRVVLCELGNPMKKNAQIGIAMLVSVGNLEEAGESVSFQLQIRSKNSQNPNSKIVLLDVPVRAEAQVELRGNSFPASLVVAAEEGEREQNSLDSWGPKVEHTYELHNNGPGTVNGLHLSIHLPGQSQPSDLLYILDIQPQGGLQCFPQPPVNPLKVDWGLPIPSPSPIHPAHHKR
T1 sequence (P08514 891-1039 limits assumed): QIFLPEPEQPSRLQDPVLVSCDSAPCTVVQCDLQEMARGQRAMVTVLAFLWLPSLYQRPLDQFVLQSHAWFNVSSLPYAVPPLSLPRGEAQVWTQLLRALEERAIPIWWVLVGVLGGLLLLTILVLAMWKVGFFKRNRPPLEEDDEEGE

[5] = test system: Cavia porcellus; assay: Ex vivo platelet aggregation of compound was measured in guinea pig up to 5 hr after intraduodenal dose of 0.3 mg/kg; assay type: functional
[6] = test system: Cavia porcellus; assay: Ex vivo platelet aggregation of compound was measured in guinea pig up to 5 hr after intraduodenal dose of 10 mg/kg; assay type: functional
[7] = target: T1, Integrin alpha-IIb/beta-3; assay: Inhibition of fibrinogen binding to GPllb/IIIa receptor; assay type: protein-complex assay

For `CC(C)CC(=O)N[C@H](CCCCNC(=O)c1ccc(C(=N)N)cc1)CC(=O)O`, the inhibition in vivo at 1 mg/kg [1] was 65%, the inhibition in vivo at 3 mg/kg [2] was 75% and the IC50 [3] was 15 nM. For the same molecule, the IC50 [4] was 0.54 nM.
`CC(C)CNC(=O)[C@@H](CCCNC(=O)Cc1ccc(C(=N)N)cc1)CC(=O)O` gave an IC50 [3] of 950 nM and an IC50 [4] of 7.9 nM.
Molecule `COc1ccc(CCS(=O)(=O)N[C@H](CCCCNC(=O)c2ccc(C(=N)N)cc2)CC(=O)O)cc1` has an IC50 [3] of 79 nM and an IC50 [4] of 1 nM.
`CC(C)CC(=O)N[C@@H](CCCNC(=O)Cc1ccc(C(=N)N)cc1)CC(=O)O` was tested, and the inhibition in vivo at 1 mg/kg [1] was 25%, the inhibition in vivo at 3 mg/kg [2] was 75% and the IC50 [3] was 100 nM.
`COc1ccc(CCC(=O)N[C@H](CCCCNC(=O)c2ccc(C(=N)N)cc2)CC(=O)O)cc1` gave an inhibition in vivo at 0.3 mg/kg [5] of 45%, an inhibition in vivo at 1 mg/kg [1] of 90% and an IC50 [3] of 18 nM. It also gave an IC50 [4] of 0.36 nM.
`N=C(N)c1ccc(CC(=O)NCCC[C@@H](CC(=O)O)NC(=O)CCC23C[C@H]4C[C@@H](C2)C[C@@H](C3)C4)cc1` gave an inhibition in vivo at 3 mg/kg [2] of 10%, an IC50 [3] of 61 nM and an IC50 [4] of 0.37 nM.
Work on `COc1ccc(CCC(=O)N[C@@H](CCCNC(=O)Cc2ccc(C(=N)N)cc2)CC(=O)O)cc1` yielded an inhibition in vivo at 1 mg/kg [1] of 10%, an inhibition in vivo at 3 mg/kg [2] of 10% and an IC50 [3] of 31 nM. The IC50 [4] was 1.1 nM.
`Cc1ccc(S(=O)(=O)N[C@@H](CCCNC(=O)Cc2ccc(C(=N)N)cc2)CC(=O)O)cc1` showed an inhibition in vivo at 10 mg/kg [6] of 10% and an IC50 [3] of 640 nM.
`N=C(N)c1ccc(CC(=O)NCCC[C@@H](CC(=O)O)NC(=O)CC23C[C@H]4C[C@@H](C2)C[C@@H](C3)C4)cc1` showed an IC50 [3] of 67 nM and an IC50 [4] of 2.2 nM.
For `Cc1ccc(S(=O)(=O)N[C@@H](CCCNC(=O)Cc2ccc(C(=N)N)cc2)C(=O)O)cc1`, the IC50 [3] was 31000 nM and the IC50 [4] was 48000 nM.
With `N=C(N)c1ccc(C(=O)NCCCC[C@H](CC(=O)O)NC(=O)Cc2cccc3ccccc23)cc1` the inhibition in vivo at 1 mg/kg [1] was 40%, the IC50 [3] was 18 nM and the IC50 [4] was 0.36 nM.
Molecule `Cc1ccc(S(=O)(=O)N[C@@H](CCCNC(=O)OCc2ccccc2)C(=O)O)cc1` [ORNITHINE SULFONAMIDE] has an IC50 [7] of 20000 nM.
